Earlier results in article PMC7439511 (Science Advances, 2020).

System: RACK7 (ZMYND8)

Substance	RACK7 binding to N-terminal tail of histone H3
H3K4me1: H3K4me1 peptide, amino acids 1 to 21	bind
H3K4me0: H3K4me0 (H3) peptide, amino acids 1 to 21	bind
